Patent US20230212229A1 (priority 2021, published 2023)
Values joined by “and” are separate entries in the source; they are usually repeats but may differ in a detail not shown here. Identical values can stand only once. Like-named read-outs stand apart in the source and are kept apart here.

Key:
Isg56 mRNA = type: in vivo, ACE2 transgenic mice; details: for Isg56 mRNA: relative to unstimulated mice, individual mice n = 8
SARS-CoV-2 genomic RNA = assay: qPCR of the load of SARS-CoV-2 genomic RNA in spleen, liver and lung tissues; type: in vivo, ACE2 transgenic mice; details: for SARS-CoV-2 genomic RNA: individual mice n = 8
SARS-CoV-2 S protein = type: in vivo, ACE2 transgenic mice; details: 0.5 mg NIP-V; lungs 24 h after infection; versus PBS+SARS-CoV-2
SARS-CoV-2 N protein = details: 0.5 mg NIP-V; lungs 24 h after infection; versus PBS+SARS-CoV-2
IFN-β = type: in vivo, ACE2 transgenic mice; details: for IFN-β in serum: 0.5 mg NIP-V, individual mice n = 8
MAVS oligomerization = type: cell-based; details: HEK 293T, Myc-NP transfected; 50 μM or 100 μM NIP-V 1 h before SeV stimulation for 8 h
Ifnb1 mRNA = type: in vivo, ACE2 transgenic mice; details: for Ifnb1 mRNA: relative to unstimulated mice, individual mice n = 8
SARS-CoV-2 [1] = type: in vivo, ACE2 transgenic mice; details: for SARS-CoV-2 copies/μL: lung tissue, 0.5 mg NIP-V injected 1 h before intranasal 1×10^5 TCID50, individual mice n = 8
SARS-CoV-2 [2] = type: in vivo, ACE2 transgenic mice; details: lungs 24 h after infection
[3] = NIP-V treatment versus PBS-treated group

“IHKNLLIVQDKFPPRRRQRRKKRG [NIP-V, interfering peptide targeting amino acids 346 to 357 of the SARS-CoV-2 N protein dimerization domain, fused with HIV-TAT]” was tested. Which “Isg56 mRNA” value (Isg56 mRNA; Liver, 16 h) did it give?
The value was 30.49 Fold and 18.13 Fold and 27.16 Fold and 42.29 Fold and 27.58 Fold and 35.86 Fold and 25.80 Fold and 29.09 Fold.

What about the “Isg56 mRNA” value (Isg56 mRNA; Liver, 24 h) of the same sequence?
The value was 14.51 Fold and 10.01 Fold and 7.41 Fold and 10.47 Fold and 12.89 Fold and 12.03 Fold and 9.46 Fold and 5.61 Fold.

And the “Isg56 mRNA” value (Isg56 mRNA; Lung, 16 h)?
The value was 92.65 Fold and 109.88 Fold and 67.64 Fold and 46.59 Fold and 99.03 Fold and 85.62 Fold and 91.13 Fold and 26.35 Fold.

What about the “Isg56 mRNA” value (Isg56 mRNA; Lung, 24 h) of the same sequence?
Its value is 232.32 Fold and 263.20 Fold and 152.15 Fold and 131.60 Fold and 144.01 Fold and 188.71 Fold and 205.07 Fold and 374.81 Fold.

And the “expression of Isg56 mRNA in spleen, liver and lung tissues (in words)” value (Isg56 mRNA; [3])?
The value was “increase the expression”.

What about the “Isg56 mRNA” value (Isg56 mRNA; Spleen, 16 h) of the same sequence?
The value was 121.34 Fold and 87.49 Fold and 110.12 Fold and 85.19 Fold and 94.54 Fold and 59.17 Fold and 76.17 Fold and 82.88 Fold.

And the “Isg56 mRNA” value (Isg56 mRNA; Spleen, 24 h)?
Its value is 73.25 Fold and 63.36 Fold and 55.41 Fold and 62.68 Fold and 45.16 Fold and 32.90 Fold and 56.97 Fold and 36.50 Fold.

What about the “SARS-CoV-2 genomic RNA” value (SARS-CoV-2 genomic RNA; Liver, 16 h) of the same sequence?
Its value is 2.09E+02 Fold and 1.42E+02 Fold and 8.55E+01 Fold and 1.08E+02 Fold and 1.69E+02 Fold and 6.80E+02 Fold and 8.67E+01 Fold and 2.38E+02 Fold.

And the “SARS-CoV-2 genomic RNA” value (SARS-CoV-2 genomic RNA; Liver, 24 h)?
The value was 6.41E+01 Fold and 4.17E+01 Fold and 4.33E+01 Fold and 1.70E+02 Fold and 5.83E+01 Fold and 5.13E+01 Fold and 3.93E+01 Fold and 2.38E+01 Fold.

And the “SARS-CoV-2 genomic RNA” value (SARS-CoV-2 genomic RNA; Lung, 16 h)?
The value was 5.93E+03 Fold and 4.43E+03 Fold and 2.73E+03 Fold and 1.61E+04 Fold and 1.86E+04 Fold and 1.48E+04 Fold and 8.10E+03 Fold and 3.62E+03 Fold.

And the “SARS-CoV-2 genomic RNA” value (SARS-CoV-2 genomic RNA; Lung, 24 h)?
The value was 4.74E+03 Fold and 3.19E+03 Fold and 3.72E+03 Fold and 1.23E+03 Fold and 1.56E+03 Fold and 1.26E+03 Fold and 1.49E+04 Fold and 0.00E+00 Fold.

And the “SARS-CoV-2 genomic RNA” value (SARS-CoV-2 genomic RNA; Spleen, 16 h)?
Its value is 1.66E+03 Fold and 1.40E+03 Fold and 1.37E+03 Fold and 4.78E+02 Fold and 1.60E+03 Fold and 8.65E+02 Fold and 1.33E+03 Fold and 1.15E+03 Fold.

And the “SARS-CoV-2 genomic RNA” value (SARS-CoV-2 genomic RNA; Spleen, 24 h)?
The value was 4.18E+02 Fold and 3.11E+02 Fold and 2.38E+02 Fold and 1.85E+02 Fold and 4.43E+02 Fold and 1.35E+02 Fold and 2.56E+02 Fold and 7.20E+02 Fold.

And the “proliferation of SARS-CoV-2 in tissues (qPCR, in words)” value (SARS-CoV-2 genomic RNA; spleen, liver and lung, NIP-V treatment versus PBS-treated group)?
Its value is “inhibit the proliferation of SARS-CoV-2”.

What about the “SARS-CoV-2 S protein signal in lung tissue (immunohistochemistry)” value (SARS-CoV-2 S protein) of the same sequence?
Its value is “much lower than that of the PBS+SARS-CoV-2 treated mice”.

What about the “SARS-CoV-2 N protein signal in lung tissue (immunofluorescence)” value (SARS-CoV-2 N protein) of the same sequence?
Its value is “weaker N protein signals can be detected”.

What about the “content of IFN-β in serum (in words)” value (IFN-β; NIP-V-treated groups versus PBS-treated groups, 16 h and 24 h) of the same sequence?
Its value is “significantly higher than that in the PBS-treated group”.

What about the IFN-β in serum (IFN-β; 16 h after SARS-CoV-2 infection) of the same sequence?
The IFN-β in serum was 52.44 pg/mL and 46.60 pg/mL and 50.21 pg/mL and 75.33 pg/mL and 37.97 pg/mL and 52.98 pg/mL and 68.93 pg/mL and 48.49 pg/mL.

And the IFN-β in serum (IFN-β; 24 h after SARS-CoV-2 infection)?
Its IFN-β in serum is 38.29 pg/mL and 38.61 pg/mL and 34.78 pg/mL and 30.95 pg/mL and 44.88 pg/mL and 37.02 pg/mL and 35.42 pg/mL and 45.20 pg/mL.

And the “MAVS oligomerization inhibited by SARS-CoV-2 N protein (SDD-PAGE)” value (MAVS oligomerization)?
The value was “restore the MAVS oligomerization in a dose-dependent manner”.

What about the “Ifnb1 mRNA” value (Ifnb1 mRNA; Liver, 16 h) of the same sequence?
Its value is 52.55 Fold and 86.45 Fold and 85.91 Fold and 111.15 Fold and 85.02 Fold and 132.00 Fold and 68.88 Fold and 81.36 Fold.

What about the “Ifnb1 mRNA” value (Ifnb1 mRNA; Liver, 24 h) of the same sequence?
Its value is 22.59 Fold and 79.02 Fold and 29.53 Fold and 33.69 Fold and 42.93 Fold and 49.66 Fold and 31.43 Fold and 45.92 Fold.

And the “Ifnb1 mRNA” value (Ifnb1 mRNA; Lung, 16 h)?
The value was 186.37 Fold and 302.75 Fold and 202.16 Fold and 145.17 Fold and 113.93 Fold and 133.62 Fold and 259.88 Fold and 148.33 Fold.

And the “Ifnb1 mRNA” value (Ifnb1 mRNA; Lung, 24 h)?
The value was 82.49 Fold and 165.42 Fold and 112.99 Fold and 126.62 Fold and 84.22 Fold and 36.61 Fold and 22.54 Fold and 46.19 Fold.

And the “expression of Ifnb1 mRNA in spleen, liver and lung tissues (in words)” value (Ifnb1 mRNA; [3])?
Its value is “increase the expression”.

And the “Ifnb1 mRNA” value (Ifnb1 mRNA; Spleen, 16 h)?
Its value is 87.27 Fold and 42.74 Fold and 73.72 Fold and 58.30 Fold and 67.91 Fold and 98.19 Fold and 64.75 Fold and 70.43 Fold.

And the “Ifnb1 mRNA” value (Ifnb1 mRNA; Spleen, 24 h)?
The value was 45.66 Fold and 36.50 Fold and 51.66 Fold and 47.70 Fold and 40.76 Fold and 71.38 Fold and 47.81 Fold and 45.86 Fold.

And the “SARS-CoV-2 viral load in lung tissue (in words)” value (SARS-CoV-2 [1]; NIP-V-treated groups (2 and 4) versus PBS-treated groups, 16 h and 24 h)?
The value was “greatly reduced”.

What about the “SARS-CoV-2 copies/μL” value (SARS-CoV-2 [1]; 16 h after infection) of the same sequence?
The value was 30 copies/μL and 76 copies/μL and 0 copies/μL (3×) and 2484 copies/μL and 131 copies/μL and 726 copies/μL.

And the “SARS-CoV-2 copies/μL” value (SARS-CoV-2 [1]; 24 h after infection)?
Its value is 3 copies/μL and 0 copies/μL (7×).

What about the “lung lesions caused by SARS-CoV-2 infection (HE staining)” value (SARS-CoV-2 [2]; 0.5 mg NIP-V 1 h before infection, versus PBS+SARS-CoV-2) of the same sequence?
Its value is “significantly reduce the lung lesions”.

What about the “thickening of alveolar septa (HE staining)” value (SARS-CoV-2 [2]; 0.5 mg NIP-V) of the same sequence?
Its value is “not significant”.

What about the “occurrence of hemagglutination and inflammatory cell infiltration (HE staining)” value (SARS-CoV-2 [2]; 0.5 mg NIP-V, versus PBS+SARS-CoV-2 group) of the same sequence?
The value was “significantly lower than that in the PBS+SARS-CoV-2 group”.
